Test results taken from patent EP0128651A2, “Pyranones and related compounds and methods for their production and use” (WARNER-LAMBERT COMPANY, priority 1983, dated 1984).
≈ marks a conversion by molar mass, not a printed value. Marks after values point to notes of the source that are not given here.

Legend:
L1210 Cells = experiment: Cytotoxicity against L1210 cells; assay type: cell-based; conditions: Mus musculus, read-out: ID50 (the source's name)
Mouse Leukemia L1210 = experiment: Animal tumor screening, response of L1210 leukemia in mice; assay type: in vivo; design: key to Activiity: -X= Borderline activity shown.; X= Activity shown. The initial endpoint is less stringent and is indicative of statistical significance.; XX= Outstanding activity shown and a proportion of "cures" produced. The stringent endpoint is indicative of sufficient antitumor selectivity to warrant consideration for development toward clinical trial.; No= No activity shown; conditions: for T/C(%) / "Cures": Daily x 9
Mouse Colon 38 = experiment: Animal tumor screening, mouse colon 38; assay type: in vivo; design: key: -X= Borderline activity shown.; X= Activity shown. The initial endpoint is less stringent and is indicative of statistical significance.; XX= Outstanding activity shown and a proportion of "cures" produced. The stringent endpoint is indicative of sufficient antitumor selectivity to warrant consideration for development toward clinical trial.; No= No activity shown
Mouse Melanoma B16 = experiment: Animal tumor screening, mouse melanoma B16; assay type: in vivo; design: key: -X= Borderline activity shown.; X= Activity shown. The initial endpoint is less stringent and is indicative of statistical significance.; XX= Outstanding activity shown and a proportion of "cures" produced. The stringent endpoint is indicative of sufficient antitumor selectivity to warrant consideration for development toward clinical trial.; No= No activity shown
Human Mammary Xenograft = experiment: Animal tumor screening, human mammary xenograft; assay type: in vivo; design: key: -X= Borderline activity shown.; X= Activity shown. The initial endpoint is less stringent and is indicative of statistical significance.; XX= Outstanding activity shown and a proportion of "cures" produced. The stringent endpoint is indicative of sufficient antitumor selectivity to warrant consideration for development toward clinical trial.; No= No activity shown
Mouse Leukemia P3888 = experiment: Animal tumor screening, mouse leukemia P388; assay type: in vivo; design: key: -X= Borderline activity shown.; X= Activity shown. The initial endpoint is less stringent and is indicative of statistical significance.; XX= Outstanding activity shown and a proportion of "cures" produced. The stringent endpoint is indicative of sufficient antitumor selectivity to warrant consideration for development toward clinical trial.; No= No activity shown
Mluse Lewis Lung = experiment: Animal tumor screening, mouse Lewis lung; assay type: in vivo; design: key: -X= Borderline activity shown.; X= Activity shown. The initial endpoint is less stringent and is indicative of statistical significance.; XX= Outstanding activity shown and a proportion of "cures" produced. The stringent endpoint is indicative of sufficient antitumor selectivity to warrant consideration for development toward clinical trial.; No= No activity shown
Human Lung Xenograft = experiment: Animal tumor screening, human lung xenograft; assay type: in vivo; design: key: -X= Borderline activity shown.; X= Activity shown. The initial endpoint is less stringent and is indicative of statistical significance.; XX= Outstanding activity shown and a proportion of "cures" produced. The stringent endpoint is indicative of sufficient antitumor selectivity to warrant consideration for development toward clinical trial.; No= No activity shown
Mouse Mammary CD8F1 = experiment: Animal tumor screening, mouse mammary CD8F1; assay type: in vivo; design: key: -X= Borderline activity shown.; X= Activity shown. The initial endpoint is less stringent and is indicative of statistical significance.; XX= Outstanding activity shown and a proportion of "cures" produced. The stringent endpoint is indicative of sufficient antitumor selectivity to warrant consideration for development toward clinical trial.; No= No activity shown; conditions: treatment started 34 days after tumor implant (advanced-stage tumor)

CC(=O)OCC=CC=CC=CC(CC(OP(=O)(O)O)C(C)(O)C=CC1CC=CC(=O)O1)OC(C)=O.[Na] (stereo not shown) [CL 1565-A Diacetate, Sodium Salt, 6-[6,13-Bis(acetyloxy)-3-hydroxy-3-methyl-4-(phosphonooxy)-1,7,9,11-tridecatetraenyl]-5,6-dihydro-2H-pyran-2-one, sodium salt]
IC50 (L1210 Cells): ~6 µg/mL

CC(O)(C=CC1CC=CC(=O)O1)C(O)CC(O)C=CC=CC=CCO (stereo not shown) [CL 1565-A alcohol, 5,6-Dihydro-6-(3,4,6,13-tetrahydroxy-3-methyl-l,7,9, 11-tridecatetraenyl)-2H-pyran-2-one]
IC50 (L1210 Cells): 2.5 µg/mL (≈ 7.13 µM)

CC(O)(C=CC1CC=CC(=O)O1)C(CC(O)C=CC=CC=CCO)OP(=O)(O)O (stereo not shown) [CL 1565-A, 5,6-dihydro-6-(3,6,13-trihydroxy-3-methyl-4-(phosphonooxy)-1,7,9,11-tridecatetraenyl)-2H-pyran-2-one]
Activiity (Mouse Leukemia L1210; Mouse Leukemia L1210): XX (curative)
T/C(%) (Mouse Leukemia L1210; Test 1, 6.25 mg/kg/dose): 207%
"Cures" (Mouse Leukemia L1210; Test 1, 6.25 mg/kg/dose, 30-day survivors are considered cures): 0/6^e
T/C(%) (Mouse Leukemia L1210; Test 2, 3.12 mg/kg/dose): 191%
"Cures" (Mouse Leukemia L1210; Test 2, 3.12 mg/kg/dose, survivors at completion of observation period): 0/6
T/C(%) (Mouse Leukemia L1210; Test 2, 6.25 mg/kg/dose): 194%
"Cures" (Mouse Leukemia L1210; Test 2, 6.25 mg/kg/dose, survivors at completion of observation period): 1/6
T/C(%) (Mouse Leukemia L1210; Test 2, 12.50 mg/kg/dose): 337%
"Cures" (Mouse Leukemia L1210; Test 2, 12.50 mg/kg/dose, survivors at completion of observation period): 3/6
T/C(%) (Mouse Leukemia L1210; Test 3, 1.56 mg/kg/dose): 150%
"Cures" (Mouse Leukemia L1210; Test 3, 1.56 mg/kg/dose, survivors at completion of observation period): 0/6
T/C(%) (Mouse Leukemia L1210; Test 3, 3.12 mg/kg/dose): 195%
"Cures" (Mouse Leukemia L1210; Test 3, 3.12 mg/kg/dose, survivors at completion of observation period): 0/6
T/C(%) (Mouse Leukemia L1210; Test 3, 6.25 mg/kg/dose): 216%
"Cures" (Mouse Leukemia L1210; Test 3, 6.25 mg/kg/dose, survivors at completion of observation period): 0/6
T/C(%) (Mouse Leukemia L1210; Test 3, 12.50 mg/kg/dose): 246%
"Cures" (Mouse Leukemia L1210; Test 3, 12.50 mg/kg/dose, 45-day observation period): 0/6^f
T/C(%) (Mouse Leukemia L1210; Test 4, 3.12 mg/kg/dose): 194%
"Cures" (Mouse Leukemia L1210; Test 4, 3.12 mg/kg/dose, survivors at completion of observation period): 0/6
T/C(%) (Mouse Leukemia L1210; Test 4, 6.25 mg/kg/dose): 236%
"Cures" (Mouse Leukemia L1210; Test 4, 6.25 mg/kg/dose, survivors at completion of observation period): 1/6
T/C(%) (Mouse Leukemia L1210; Test 4, 12.50 mg/kg/dose): 268%
"Cures" (Mouse Leukemia L1210; Test 4, 12.50 mg/kg/dose, survivors at completion of observation period): 0/6^g
curative effect in the L1210 tumor mouse model (Mouse Leukemia L1210; result in words): curative
survival period of mice inoculated with mouse leukemia L1210 (Mouse Leukemia L1210; result in words): significantly prolongs the survival period
Activiity (Mouse Colon 38): X
Activiity (Mouse Melanoma B16): No
Activiity (Human Mammary Xenograft): -X
Activiity (Mouse Leukemia P3888): X
Activiity (Mluse Lewis Lung): No
Activiity (Human Lung Xenograft): No
Activiity (Mouse Mammary CD8F1): Xa
